Reference: article PMC10684410 (Clinical Pharmacokinetics, 2023)

Experiments:
[1] = Plasma paroxetine concentrations in the DDI study; type: in vivo, human (healthy subjects)
TAAR1 = conditions: in vitro receptor binding studies; result in words; cited from earlier work
[2] = cited from earlier work
[3] = 25 mg ulotaront + 20 mg QD paroxetine vs ulotaront alone, result in words

For `Fc1ccc([C@@H]2CCNC[C@H]2COc2ccc3c(c2)OCO3)cc1` [Paroxetine], the AUC ([1]; human, plasma, oral, 20 mg) was 647 ng·h/mL, the Cmax ([1]; human, plasma, oral, 20 mg) was 37.3 ng/mL and the “mean plasma trough concentration at steady-state” value ([1]; paroxetine 20 mg once daily from Day 5, Day 11) was 19.3 ng/mL.

For `NCC1OCCc2ccsc21` (centres unmarked) [SEP-363854], the “binding to TAAR1” value (TAAR1) is listed as “does bind to TAAR1”, the “metabolite abundance in humans” value ([2]; minor metabolite in humans) is listed as < 2 % of total and the “effective half-life for the metabolite” value ([2]; ref unpublished data) is listed as “approximately 6 h”. The “increase of SEP-363854 AUC∞ by coadministration of paroxetine” value (25 mg ulotaront + 20 mg QD paroxetine vs ulotaront alone) was 32%, the “effect of paroxetine on SEP-363854 Cmax” value [3] was “no effect” and the “effect of paroxetine on SEP-363854 tmax” value [3] was “no effect”. The “effect of paroxetine on SEP-363854 to ulotaront AUClast ratio” value [3] was “no effect” and the “mean SEP-363854 to ulotaront AUClast ratio” value (with or without paroxetine coadministration) was “about 0.02”.
